Laboratory results: article PMC10154249, “Unique progerin C-terminal peptide ameliorates Hutchinson–Gilford progeria syndrome phenotype by rescuing BUBR1” (Nature Aging, 2023)
Numbered stars: 1 amine (or outer) side, 2 acyl side, 3 side chain; on linkers, the order of the positions; unused ones are H or OH. Bridge positions count the residues as written; N and C are the ends. Square brackets hold non-standard residues; d marks the D form. Peptide text beside a SMILES is read from it. I, II: the chains in the order shown. Actinocin(9to1) = Cc1c2oc3c(C)ccc(C(=O)[*:1])c3nc-2c(C(=O)[*:2])c(N)c1=O; NMeV = CN[C@H](C(=O)O)C(C)C; Sar = CNCC(=O)O

Legend:
HGADFN003 cells [1] = test: SA-β-gal staining of HGADFN003 cells; format: cell-based, human; settings: Fig.1m, HGADFN003, Vector 65, 68, 69, 65, P<0.0001
Experimental: (§1) SA-β-gal staining was performed as previously described. Cells were fixed in 0.5% glutaraldehyde for 15 min at room temperature, washed three times with PBS (pH 6.0) containing 1 mM MgCl2 and exposed overnight 37 °C to containing 1 mg ml^–1 5-bromo-4-chloro-3-indolyl-β-D-galactopyranoside (MCE, catalog no. HY-15934), 0.12 mM potassium ferrocyanide (Sigma, catalog no. P3289), 0.12 mM potassium ferricyanide (Sigma, catalog no. P8131) and 1 mM MgCl2 PBS buffer (pH 6.0). Cells were washed three times with H2O and observed under a microscope (OLYMPUS CKX53). SA-β-gal positive cells were quantified by investigators who were blinded to the identity of the analyzed cell.

HGADFN003 cells [2] = test: Ki67 immunofluorescence of HGADFN003 cells; format: cell-based, human; settings: Fig.1o, HGADFN003, Vector 45, 38, 49, P=0.0031
Experimental: (§2) Immunofluorescence was performed as described previously. Cells were plated on cover slips in 12-well plates, left overnight before the treatment. Cells were fixed in 1% formaldehyde in culture medium for 10 min at 37 °C and permeabilized with 0.2% Triton X-100 in PBS for 10 min at room temperature. Cells were washed twice in PBS and blocked for 1 h with 5% BSA in PBS and then incubated with primary antibodies at 4 °C overnight, washed three times in PBS and incubated with secondary antibodies for 1 h at room temperature. Cell nuclei were counterstained with a 500 nM concentration of 4,6-diamidino-2-phenylindole (DAPI) (Sigma). Images were acquired by a fluorescence microscope (OLYMPUS FV-1000, Carl Zeiss LSM880 or Leica DMi8) and analyzed with software NIS-Elements AR v.5.0.1 (Nikon), FLUOVIEW v.4.2b (OLYMPUS), ZEN v.2.3 SP1 (Carl Zeiss) and Leica Application Suite X v.3.6.0.24 (Leica). Cells were quantified by investigators who were blinded to the identity of the analyzed cell.

IMR90 cells [3] = test: Ki67 immunofluorescence of IMR90 cells; format: cell-based, human; settings: Fig.1k, IMR90
Experimental: as §2

IMR90 cells [4] = test: SA-β-gal staining of IMR90 cells (progerin, BUBR1, shBUBR1); format: cell-based, human; settings: Fig.1i
Experimental: as §1

[5] = test system: IMR90 and HGADFN003 cells; test: Metaphase chromosome spread assay, aneuploid cells; format: cell-based, human
Experimental: For the metaphase chromosome spread assay, 1.5 × 10^6 cells were seeded in a 6 cm dish and incubated for 24 h with fresh medium. Then, colchicine was added to a final concentration of 0.2 μg ml^–1 and the cells were incubated at 37 °C for 2 h. After digestion, we collected and rinsed the cells with PBS. The cells were centrifuged at 160g for 10 min. Then, 1 M KCl was added to a final concentration of 0.075 mol l^–1 and the samples were incubated at 37 °C for 20 min. The cells were centrifuged, and the supernatant aspirated. The pellet was resuspended, and 1 ml methanol:glacial acetic acid (3:1) solution was added. The sample was rested at room temperature for 10 min. Then, the cells were centrifuged at 160g for 10 min. The supernatant was aspirated, and the pellet resuspended in 1 ml fixative for 30 min. The cells were centrifuged and the pellet was suspended in 1 ml fixative again for 30 min. The cells were centrifuged at 160g for 10 min and the supernatant aspirated. The pellet was then resuspended in a small volume of fixative (typically less than 500 μl) until the cell suspension appeared lightly milky. A small quantity of the cell suspension was held vertically in a pipette with the end about 10 cm above the slide. A single drop was released from this height onto the slide and allowed to air dry. The cells were then incubated with 500 nM of DAPI (Invitrogen) for 10 min. Slides were examined with an Olympus BX53 fluorescence microscope and the images were captured by using the Olympus IPP v.7.0 software. Aneuploid cells were quantified by investigators who were blinded to the identity of the analyzed cell.

[6] = test system: progerin–BUBR1 interaction; test: CoIP of progerin and BUBR1 in HEK-293T cells; format: cell-based; settings: HEK-293T co-transfected with truncated mutants and HA-progerin
Experimental: Detailed descriptions of CoIP were described previously[55],[56]. Cells were harvested and washed three times in cold PBS, then lysed in CoIP buffer (25 mM Tris-HCl (pH 7.5), 150 mM KCl, 5 mM EDTA, and 0.5% NP-40) plus protease inhibitor cocktail tablet (Roche). Incubate on ice and shock lysates on the vortex shaker 15 times for 30 s each. Microcentrifuge in 12,000g for 15 min at 4 °C, collect the supernatant, and incubate with 3 μg primary antibodies with gentle shaking overnight at 4 °C, followed by adding 20–40 μl Pure Proteome Protein A/G Mix Magnetic Beads (Millipore, catalog no. […]02) for 3 h. Wash the beads three times with 1 ml CoIP buffer for 8 min each, resuspend in 50 μl 1× loading buffer, and incubate at 100 °C for 8 min. Throw beads away and analyze by immunoblotting.

PTBP1–BUBR1 mRNA 3′-UTR = test: RIP assay of PTBP1 and BUBR1 mRNA 3′-UTR in HEK-293T cells; format: cell-based
Experimental: RIP and RNA pulldown assays were performed as previously described. The RIP experiment was carried out using the EZ-Magna RIP Kit (Millipore, catalog no. 17-701). The coprecipitated RNAs were extracted through Trizol reagent and detected by RT-PCR. The primer sequences for PCR, synthesized by Comate Bioscience, were as follows:
BUBR1-3′UTR_fwd (5′-[…]-3′) and BUBR1-3′UTR_rev (5′- […]-3′).

BUBR1 mRNA 3ʹ-UTR = test: Luciferase activity assay of BUBR1 mRNA 3ʹ-UTR in HEK-293T cells; format: cell-based; settings: Fig. 4k, Vector = 1, P=0.0012
Experimental: The experiments were performed as described previously. The BUBR1 (–1,200 to +100) promoter or the DNA fragment of BUBR1 mRNA 3′-UTR was inserted into the pGL4.20 vector. Cells were plated in 24-well plates. After 24 h, cells were cotransfected with 200 ng of the indicated firefly luciferase reporter plasmid and 50 ng of Renilla luciferase normalization control plasmid using PEI. At 48 h after transfection, cell lysates were collected to measure luciferase activity using the Dual-Luciferase Reporter Assay System (Promega, catalog no. E1910) according to the manufacturer’s instructions. Luciferase reporter assay was carried out on an TD-20/20 Turner Designs luminometer, data were analyzed and further processed in Microsoft Excel and GraphPad Prism v.7.

BUBR1 mRNA = BUBR1 mRNA stability assay with Actinomycin D; format: cell-based, human; settings: Fig. 4h, +Act D (shCtrl+Act D or shPTBP1#1+Act D), shCtrl = 1
Experimental: RNA preparation was performed as described. Total RNA was extracted using Trizol reagent (TaKaRa) following the manufacturer’s instructions. cDNA was generated with M-MLV reverse transcriptase (Promega, catalog no. M170B). Reverse transcription with PCR (RT-PCR) was performed with SYBR Green Real-Time PCR Master Mix (TaKaRa). RT-PCR was carried out on a QuantStudio 3 Real-Time-PCR Instrument (ABI). Data were analyzed and further processed in QuantStuido Design and Analysis Software and GraphPad Prism v.7. Fold change in gene expression over control samples was calculated using the 2^–ΔΔCt method, where β-actin Ct values were used as an internal control. The primer sequences for PCR, synthesized by Comate Bioscience, were as follows: […]

BUBR1
Relative percentage of SA-β-gal positive cells (HGADFN003 cells [1]; replicate 1): 48%
Relative percentage of SA-β-gal positive cells (HGADFN003 cells [1]; replicate 2): 49%
Relative percentage of SA-β-gal positive cells (HGADFN003 cells [1]; replicate 3): 50%
Relative percentage of SA-β-gal positive cells (HGADFN003 cells [1]; replicate 4): 42%
Relative percentage of Ki67 positive cells (HGADFN003 cells [2]; replicate 1): 78%
Relative percentage of Ki67 positive cells (HGADFN003 cells [2]; replicate 2): 74%
Relative percentage of Ki67 positive cells (HGADFN003 cells [2]; replicate 3): 67%
Relative percentage of Ki67 positive cells (IMR90 cells [3]; Vector 67, 75, 60, P vs Vector: BUBR1 0.803, progerin 0.0018, replicate 1): 64%
Relative percentage of Ki67 positive cells (IMR90 cells [3]; Vector 67, 75, 60, P vs Vector: BUBR1 0.803, progerin 0.0018, replicate 2): 78%
Relative percentage of Ki67 positive cells (IMR90 cells [3]; Vector 67, 75, 60, P vs Vector: BUBR1 0.803, progerin 0.0018, replicate 3): 65%
Relative percentage of Ki67 positive cells (IMR90 cells [3]; progerin+BUBR1, P=0.0042 vs progerin, replicate 1): 48%
Relative percentage of Ki67 positive cells (IMR90 cells [3]; progerin+BUBR1, P=0.0042 vs progerin, replicate 2): 51%
Relative percentage of Ki67 positive cells (IMR90 cells [3]; progerin+BUBR1, P=0.0042 vs progerin, replicate 3): 45%
Relative percentage of SA-β-gal positive cells (IMR90 cells [4]; Vector 2, 1, 2, P vs Vector: BUBR1 0.2302, progerin 0.0003, replicate 1): 3%
Relative percentage of SA-β-gal positive cells (IMR90 cells [4]; Vector 2, 1, 2, P vs Vector: BUBR1 0.2302, progerin 0.0003, replicate 2): 2%
Relative percentage of SA-β-gal positive cells (IMR90 cells [4]; Vector 2, 1, 2, P vs Vector: BUBR1 0.2302, progerin 0.0003, replicate 3): 2%
Relative percentage of SA-β-gal positive cells (IMR90 cells [4]; progerin+BUBR1, P=0.0026 vs progerin, replicate 1): 15%
Relative percentage of SA-β-gal positive cells (IMR90 cells [4]; progerin+BUBR1, P=0.0026 vs progerin, replicate 2): 18%
Relative percentage of SA-β-gal positive cells (IMR90 cells [4]; progerin+BUBR1, P=0.0026 vs progerin, replicate 3): 20%
Relative percentage of aneuploid cells ([5]; Fig.1p, IMR90, Vector 6, 5, 8, replicate 1): 5%
Relative percentage of aneuploid cells ([5]; Fig.1p, IMR90, Vector 6, 5, 8, replicate 2): 5%
Relative percentage of aneuploid cells ([5]; Fig.1p, IMR90, Vector 6, 5, 8, replicate 3): 7%
Relative percentage of aneuploid cells ([5]; Fig.1p, IMR90, progerin+BUBR1, replicate 1): 25%
Relative percentage of aneuploid cells ([5]; Fig.1p, IMR90, progerin+BUBR1, replicate 2): 17%
Relative percentage of aneuploid cells ([5]; Fig.1p, IMR90, progerin+BUBR1, replicate 3): 22%
Relative percentage of aneuploid cells ([5]; Fig.1q, HGADFN003, Vector 29, 35, 32, P=0.0053, replicate 1): 21%
Relative percentage of aneuploid cells ([5]; Fig.1q, HGADFN003, Vector 29, 35, 32, P=0.0053, replicate 2): 17%
Relative percentage of aneuploid cells ([5]; Fig.1q, HGADFN003, Vector 29, 35, 32, P=0.0053, replicate 3): 14%

progerin-C36: truncated progerin-C, aa residues 579–614, used for the design of UPCP (YNLRSRTVLCGTCGQPADKASASGSGAQSPQNCSIM)
block of progerin–BUBR1 binding by truncated progerin-C [6]: could block the binding of progerin and BUBR1

PTBP1
PTBP1 enrichment on BUBR1-3'UTR (2-ΔΔCt) (PTBP1–BUBR1 mRNA 3′-UTR; Fig. 4i, IgG = 1, P=0.0086, replicate 1): 21.8107
PTBP1 enrichment on BUBR1-3'UTR (2-ΔΔCt) (PTBP1–BUBR1 mRNA 3′-UTR; Fig. 4i, IgG = 1, P=0.0086, replicate 2): 40.6928
PTBP1 enrichment on BUBR1-3'UTR (2-ΔΔCt) (PTBP1–BUBR1 mRNA 3′-UTR; Fig. 4i, IgG = 1, P=0.0086, replicate 3): 24.8579
PTBP1 enrichment on BUBR1-3'UTR (2-ΔΔCt) (PTBP1–BUBR1 mRNA 3′-UTR; Fig. 4n, PTBP1, Vector = 1, P<0.0001 vs Vector, replicate 1): 12.7685
PTBP1 enrichment on BUBR1-3'UTR (2-ΔΔCt) (PTBP1–BUBR1 mRNA 3′-UTR; Fig. 4n, PTBP1, Vector = 1, P<0.0001 vs Vector, replicate 2): 13.1604
PTBP1 enrichment on BUBR1-3'UTR (2-ΔΔCt) (PTBP1–BUBR1 mRNA 3′-UTR; Fig. 4n, PTBP1, Vector = 1, P<0.0001 vs Vector, replicate 3): 13.6473
Relative luciferase activity of BUBR1 3'UTR (PTBP1/Vector) (BUBR1 mRNA 3ʹ-UTR; replicate 1): 3.3
Relative luciferase activity of BUBR1 3'UTR (PTBP1/Vector) (BUBR1 mRNA 3ʹ-UTR; replicate 2): 4
Relative luciferase activity of BUBR1 3'UTR (PTBP1/Vector) (BUBR1 mRNA 3ʹ-UTR; replicate 3): 3

Cc1c2oc3c(C)ccc(C(=O)N[C@@H]4C(=O)N[C@H](C(C)C)C(=O)N5CCC[C@H]5C(=O)N(C)CC(=O)N(C)[C@@H](C(C)C)C(=O)O[C@@H]4C)c3nc-2c(C(=O)N[C@@H]2C(=O)N[C@H](C(C)C)C(=O)N3CCC[C@H]3C(=O)N(C)CC(=O)N(C)[C@@H](C(C)C)C(=O)O[C@@H]2C)c(N)c1=O [ActD] (I: T[dV]P[Sar][NMeV] / II: T[dV]P[Sar][NMeV]; ester I:1-I:C, II:1-II:C; linker I:N-II:N via Actinocin(9to1))
BUBR1 relative (to β-actin) mRNA level (2-ΔΔCt) (BUBR1 mRNA; replicate 1): 0.6794
BUBR1 relative (to β-actin) mRNA level (2-ΔΔCt) (BUBR1 mRNA; replicate 2): 0.7373
BUBR1 relative (to β-actin) mRNA level (2-ΔΔCt) (BUBR1 mRNA; replicate 3): 0.615
